Consider eight compounds from patent US20230255943A1, “MMP-9 AND MMP-12 INHIBITION FOR TREATING SPINAL CORD INJURY OR RELATED INJURY TO NEUROLOGICAL TISSUE” (The University of Birmingham, priority 2020, published 2023).

Experiment [1] concerns mice with DC crush injury. The experiment can be described thus: Spinal cord water content (oedema) after DC crush injury in mice. The experiment is classed as in vivo, mouse. Conditions: 3 days after DC injury; doses and routes of Table 1; vs DC+vehicle. How it is done:
For oral delivery of AZD1236, n=6 adult male C57BL6 mice/group (Charles River, Margate, UK) were randomly allocated to either: (1), Sham (control; partial laminectomy but no DC crush injury); (2), DC crush injury+vehicle (partial laminectomy followed by DC crush injury and injection of vehicle); (3), DC crush injury+100 mg/kg AZD1236; (4), DC crush injury+200 mg/kg AZD1236; and (5), DC crush injury+300 mg/kg AZD1236. For intrathecal (it) delivery of AZD1236, adult male C57BL6 mice (25-30 g) (Charles River, Margate, UK) were randomly allocated to either: (1), Sham (control; partial laminectomy but no DC crush injury); (2), DC crush injury+vehicle (partial laminectomy followed by DC crush injury and injection of vehicle); (3), DC crush injury+2.5 mg/kg AZD1236; (4), DC crush injury+5 mg/kg AZD1236; and (5), DC crush injury+10 mg/kg AZD1236. For intrathecal delivery an indwelling atlanto-occipital intrathecal catheter was inserted into the intrathecal space, as described previously (F. A. Oladosu, B. P. Ciszek, S. C. O'Buckley, A. G. Nackley, Novel intrathecal and subcutaneous catheter delivery systems in the mouse. J Neurosci Methods 264, 119-128 (2016)). Briefly, with mice in the sternal recumbency a small incision was made at the nape of the neck followed by detachment of the muscles on either side of the external occipital crest to expose the A-O membrane. The membrane was incised and a 6 cm Alzet mouse intrathecal catheter (Alzet, Cupertino, Calif., USA) and polyurethane segments were gently guided 2.5 cm into the intrathecal space. The catheter was secured using 4-0 silk sutures (Oasis Medical, IL) and the exposed end of the catheter was sealed off with a stainless-steel plug and affixed to the upper back. Animals were injected immediately with vehicle or AZD1236 followed by a 10 μl PBS catheter flush. Injections were repeated every twice daily for the first 3 days after injury and drugs and vehicle reagents were delivered over 1 min time period using a Hamilton microlitre syringe (Hamilton Co, USA). Where specified intact animals with no surgical procedures were also used. All lesions were administered under 5% isofluorane induced inhalation anaesthesia, with 1.51/min O2. Pre- and post-injury analgesia was also provided.
DC crush injury was administered bilaterally at the T8 vertebral level as described previously (S. Surey, M. Berry, A. Logan, R. Bicknell, Z. Ahmed, Differential cavitation, angiogenesis and wound-healing responses in injured mouse and rat spinal cords. Neuroscience 275, 62-80 (2014); M. L. Read, S. Mir, R. Spice, R. J. Seabright, E. L. Suggate, Z. Ahmed, M. Berry, A. Logan, Profiling RNA interference (RNAi)-mediated toxicity in neural cultures for effective short interfering RNA design. J Gene Med 11, 523-534 (2009)). Briefly, calibrated watchmaker's forceps were separated by 0.5 mm and inserted through the dorsal cord meninges to a depth of 0.45 mm in mice and separated by 1 mm and inserted through the dorsal cord meninges to a depth of 1.0 mm in rats, and the DC were crushed for 3 seconds. AZD1236 or vehicle was administered twice daily by oral gavage or intrathecally, either immediately for the first 3 days or 24 hours after injury and treating twice daily until day 4 (i.e. 3 days of AZD1236 dosing). All experiments were performed with n=6 mice/group and repeated on at least 2-3 independent occasions (total=12-18 animals/group/test).
The lesion site+3 mm either side for mice and the lesion site+5 mm either side for the rat DC model were dissected out and the water content of the spinal cord (as a measure of oedema) was determined at 3 days after DC and CC SCI, as described previously (S. Li, C. H. Tator, Effects of MK801 on evoked potentials, spinal cord blood flow and cord edema in acute spinal cord injury in rats. Spinal Cord 37, 820-832 (1999)). Spinal cords containing the lesion site were weighed on aluminium foil, dried at 105° C. for 24 hr, and re-weighed. […]

The subject of experiment [2] is mice with DC crush injury. The description is as above. Conditions: IP, twice daily. The format is in vivo, mouse.
Experiment [3] concerns J774A.1, RAW 264.7 and primary mouse peritoneal macrophages. In words: Transwell migration assay of macrophages. The format is cell-based. The following applies: J774A.1 and RAW 264.7, 3 h. How it is done:
J774A.1 cells (#TIB-67; ATCC, Middlesex, UK) were cultured in DMEM supplemented with 10% FBS, 100 U/ml penicillin, 100 μg/ml streptomycin, and 0.25 μg amphotericin B. Cells were seeded in T75 tissue-culture flasks and maintained at 37° C. and 5% CO2. RAW 264.7 cells (#TIB-71; ATCC) were maintained in DMEM containing 10% FBS.
Resident peritoneal cells were harvested from adult C57BL/6 mice (6-8 weeks old) by injection of 10 ml of PBS using a 21G needle into the peritoneal cavity and harvesting the cell suspension, as described previously (Rosas M, Davies L C, Giles P J, Liao C T, Kharfan B, Stone T C, et aL. The transcription factor Gata6 links tissue macrophage phenotype and proliferative renewal. Science 2014; 344(6184): 645-8). Peritoneal cells were then centrifuged at 100×g for 10 min and the cell pellet resuspended in DMEM/F12 medium. Cell were incubated at 37° C., for 2 h and non-adherent cells were removed by gentle washing. Cells were expanded in DMEM/F12 medium containing 10% FBS. For migration assays, cells were grown in RPMI containing 0.02% BSA for 24 h to obtain quiescent cells prior to using them in Transwell migration assays as described below.
Migration assays were performed with J774A.1, RAW 264.7 and primary mouse peritoneal macrophages in 6.5 mm Transwell plates (ThermoFisher) with 8 μm pore inserts, as described previously (Green et al., 2012). Briefly, inserts were coated with rat tail type I collagen and 1×10^5 cells (J774A.1, RAW 264.7 or primary mouse macrophages) were resuspended in chemotaxis buffer (RMPI 1640 plus 0.02% BSA, (termed RPMI from herein)) and added to the upper chamber and incubated with migration medium, with or without known chemotactic factors MCP-1 (100 ng/ml) and PMA (100 nM), or AZD1236, GM6001, SD2590 and MMP-9 Inhibitor I (all used at 1, 10, 100, 1000 ng/ml) added to the lower chamber. Cells were allowed to migrate through the insert membrane for 3 h at 37° C., before washing inserts with PBS. Non-migrating cells remaining on the upper surface were removed with a cotton swab whilst the migrated cells on the insert were fixed, stained with Diff-Quick (#26096, Electron Microscopy Science, Hatfield, UK), and mounted on glass slides. Migration was measured visually by counting using a light microscope at 40× magnification. The mean number of cells in 10 random fields were calculated for each treatment by an experimenter masked to the treatment conditions. A migration index was calculated by dividing the number of cells that migrated in response to the chemokine by the number of cells that migrated randomly (RPMI medium) with a reference index>1, indicating chemotaxis.

Experiment [4] relates to IL-1β, TNF-α and IL-6. In words: Proinflammatory pain markers after CC SCI in mice. Conditions: oral gavage immediately after injury. The format is in vivo, mouse. How it is done:
CC SCI was administered at the T7-T8 vertebral level after exposure of T6-T9 by laminectomy. The aneurysm clip applicator was oriented in a bilateral direction and an aneurysm clip with a closing force of 24 g was applied extradurally for 60 s, as described previously (A. S. Rivlin, C. H. Tator, Effect of duration of acute spinal cord compression in a new acute cord injury model in the rat. Surg Neurol 10, 38-43 (1978):E. Esposito, I. Paterniti, E. Mazzon, T. Genovese, M. Galuppo, R. Meli, P. Bramanti, S. Cuzzocrea, MK801 attenuates secondary injury in a mouse experimental compression model of spinal cord trauma. BMC Neurosci 12, 31 (2011)).
The urinary bladders were manually emptied twice daily until bladder function was regained. Adult male C57BL6 mice (25-30 g) (Charles River, Margate, UK) were randomly allocated to either: (1), Sham (control; laminectomy but no CC SCI); (2), CC SCI+vehicle; (3), CC SCI+200 mg/kg AZD1236 (oral); (4), CC SCI+5 mg/kg AZD1236 (it). All experiments were performed with n=6 mice/group and repeated on 3 independent occasions (total=18 mice/group/test).
The lesion site+5 mm either side (DC and CC SCI, n=6 mice/rats/group, 2 independent repeats (total n=12 mice/rats/group)) was dissected and rapidly frozen in liquid N2 and stored at −80° C. until required. […] The levels of mRNA of MMP-9, MMP-12, IL-1β, TNF-α and IL-6 were determined using pre-validated mouse primer sequences from complimentary DNA prepared from extracted mRNA and qRT-PCR was performed using a LightCycler PCR machine (Roche, Burgess Hill, UK) (M. L. Read, S. Mir, R. Spice, R. J. Seabright, E. L. Suggate, Z. Ahmed, M. Berry, A. Logan, Profiling RNA interference (RNAi)-mediated toxicity in neural cultures for effective short interfering RNA design. J Gene Med 11, 523-534 (2009)). […] Fold changes were computed using the ΔΔCt method (M. L. Read, S. Mir, R. Spice, R. J. Seabright, E. L. Suggate, Z. Ahmed, M. Berry, A. Logan, Profiling RNA interference (RNAi)-mediated toxicity in neural cultures for effective short interfering RNA design. J Gene Med 11, 523-534 (2009).

Experiment [5] concerns rats with DC crush injury. The experiment can be described thus: Spinal cord water content after DC injury in rats. The format is in vivo. The following applies: rat DC injury, oral, 3 days. How it is done:
DC crush injury was administered bilaterally at the T8 vertebral level as described previously (S. Surey, M. Berry, A. Logan, R. Bicknell, Z. Ahmed, Differential cavitation, angiogenesis and wound-healing responses in injured mouse and rat spinal cords. Neuroscience 275, 62-80 (2014); M. L. Read, S. Mir, R. Spice, R. J. Seabright, E. L. Suggate, Z. Ahmed, M. Berry, A. Logan, Profiling RNA interference (RNAi)-mediated toxicity in neural cultures for effective short interfering RNA design. J Gene Med 11, 523-534 (2009)). […]
The efficacy of oral AZD3342 in the DC injury model in adult Sprague-Dawley rat was also assessed. […]
The lesion site+3 mm either side for mice and the lesion site+5 mm either side for the rat DC model were dissected out and the water content of the spinal cord (as a measure of oedema) was determined at 3 days after DC and CC SCI, as described previously (S. Li, C. H. Tator, Effects of MK801 on evoked potentials, spinal cord blood flow and cord edema in acute spinal cord injury in rats. Spinal Cord 37, 820-832 (1999)). […] The percent water content was calculated as: water content (%)=[(wet weight-dry weight)/wet weight]×100%.

Experiment [6] concerns mice with DC crush injury. In words: CSF biomarkers of SCI (S100β, NSE, GFAP, pNF-H, NF-L). The experiment is classed as in vivo, mouse. Conditions: 3 d after injury.
For experiment [7], the system named is IL-1β, TNF-α and IL-6. In words: Proinflammatory pain cytokines after DC injury in rats. The format is in vivo. The following applies: rat DC injury, oral. How it is done: The efficacy of oral AZD3342 in the DC injury model in adult Sprague-Dawley rat was also assessed. Animals were divided into 6 groups: (1), Sham (control); (2), DC crush injury+Vehicle; (3), DC crush injury+15 mg/kg AZD3342; (4), DC crush injury+75 mg/kg […]; (5), DC crush injury+375 mg/kg AZD3342; and (6), DC crush injury+Melatonin. Animals were dosed twice daily with oral AZD3342 or vehicle with the experimenters masked to the treatment conditions. These experiments were performed with n=6 rats/group and repeated on 2-3 independent occasions (total n=12-18 rats/group/test).
The lesion site+5 mm either side (DC and CC SCI, n=6 mice/rats/group, 2 independent repeats (total n=12 mice/rats/group)) was dissected and rapidly frozen in liquid N2 and stored at −80° C. until required. […] The levels of mRNA of MMP-9, MMP-12, IL-1β, TNF-α and IL-6 were determined using pre-validated mouse primer sequences from complimentary DNA prepared from extracted mRNA and qRT-PCR was performed using a LightCycler PCR machine (Roche, Burgess Hill, UK) (M. L. Read, S. Mir, R. Spice, R. J. Seabright, E. L. Suggate, Z. Ahmed, M. Berry, A. Logan, Profiling RNA interference (RNAi)-mediated toxicity in neural cultures for effective short interfering RNA design. J Gene Med 11, 523-534 (2009)). […]

Turning to `COc1ccc(Cl)cc1C(=O)NCCc1ccc(S(=O)(=O)NC(=O)NC2CCCCC2)cc1` [Glibenclamide, reference compound], the “spinal cord water content, comparison of MMP inhibitors (FIG. 4)” value in experiment [1] is listed as “significantly reduced spinal cord water content”. For `COC(=O)Nc1ccc2oc3cc(S(=O)(=O)N[C@@H](C(=O)O)C(C)C)ccc3c2c1` [MMP408], the “SCI-induced oedema with tool inhibitors singly or in combination (FIG. 3D)” value in experiment [2] is “suboptimal therapeutic benefits”. As for `CCCCCCCCCCCCCC(=O)O[C@@H]1[C@@H](C)[C@@]2(O)[C@@H](C=C(CO)C[C@]3(O)C(=O)C(C)=C[C@@H]23)[C@@H]2C(C)(C)[C@]12OC(C)=O` [PMA], the “macrophage migration (migration index, chemotaxis)” value in experiment [3] is given as “stimulated significant chemotaxis”. In the case of `Nc1nc2ccc(OC(F)(F)F)cc2s1` [Riluzole, reference compound], the “spinal cord water content, comparison of MMP inhibitors (FIG. 4)” value in experiment [1] is reported as “significantly reduced spinal cord water content”.

On to `NCC1(CC(=O)O)CCCCC1` [gabapentin], for which the “proinflammatory pain markers after CC injury, comparison with pain medications (FIG. 7)” value in the experiment on IL-1β, TNF-α and IL-6 [4] is on record as “much less effective”. Turning to `COc1ccc2[nH]cc(CCNC(C)=O)c2c1` [melatonin, reference compound], in experiment [5], the “SCI-induced edema (spinal cord water content)” value was “marginal effect”. For the same compound, in experiment [6], the “levels of S100β, NSE, GFAP, pNF-H and NF-L in CSF” value was “marginally reduced”. For the same compound, the “expression of proinflammatory pain cytokines” value in the experiment with IL-1β, TNF-α and IL-6 [7] is given as “small effect”. Also, the “spinal cord water content, comparison of MMP inhibitors (FIG. 4)” value in experiment [1] was “significantly reduced spinal cord water content”. For the compound `CC(C)C[C@H](CN)CC(=O)O` [pregabalin], in the experiment with IL-1β, TNF-α and IL-6 [4], the “proinflammatory pain markers after CC injury, comparison with pain medications (FIG. 7)” value was “much less effective”. With “MCP-1: known chemotactic factor, positive control in migration assay”, the “macrophage migration (migration index, chemotaxis)” value in experiment [3] was “stimulated significant chemotaxis”.
